Results as given in article PMC10687071 (The Journal of Biological Chemistry, 2023).
Where a chain is given by its changes, count along the chain named.

Experiments:
[1] = target: T1, R84G mutant EAG1 channels (Mus musculus, UniProt Q60603, R84G); assay: TEVC recording, imipramine inhibition, R84G mutant; assay type: cell-based; details: R84G mutant EAG1 channel, +50 mV
T1 construct: expressed in transfected cells; host or cells: Xenopus laevis oocytes injected with cRNA
T1 sequence (Q60603 1-989 R84G): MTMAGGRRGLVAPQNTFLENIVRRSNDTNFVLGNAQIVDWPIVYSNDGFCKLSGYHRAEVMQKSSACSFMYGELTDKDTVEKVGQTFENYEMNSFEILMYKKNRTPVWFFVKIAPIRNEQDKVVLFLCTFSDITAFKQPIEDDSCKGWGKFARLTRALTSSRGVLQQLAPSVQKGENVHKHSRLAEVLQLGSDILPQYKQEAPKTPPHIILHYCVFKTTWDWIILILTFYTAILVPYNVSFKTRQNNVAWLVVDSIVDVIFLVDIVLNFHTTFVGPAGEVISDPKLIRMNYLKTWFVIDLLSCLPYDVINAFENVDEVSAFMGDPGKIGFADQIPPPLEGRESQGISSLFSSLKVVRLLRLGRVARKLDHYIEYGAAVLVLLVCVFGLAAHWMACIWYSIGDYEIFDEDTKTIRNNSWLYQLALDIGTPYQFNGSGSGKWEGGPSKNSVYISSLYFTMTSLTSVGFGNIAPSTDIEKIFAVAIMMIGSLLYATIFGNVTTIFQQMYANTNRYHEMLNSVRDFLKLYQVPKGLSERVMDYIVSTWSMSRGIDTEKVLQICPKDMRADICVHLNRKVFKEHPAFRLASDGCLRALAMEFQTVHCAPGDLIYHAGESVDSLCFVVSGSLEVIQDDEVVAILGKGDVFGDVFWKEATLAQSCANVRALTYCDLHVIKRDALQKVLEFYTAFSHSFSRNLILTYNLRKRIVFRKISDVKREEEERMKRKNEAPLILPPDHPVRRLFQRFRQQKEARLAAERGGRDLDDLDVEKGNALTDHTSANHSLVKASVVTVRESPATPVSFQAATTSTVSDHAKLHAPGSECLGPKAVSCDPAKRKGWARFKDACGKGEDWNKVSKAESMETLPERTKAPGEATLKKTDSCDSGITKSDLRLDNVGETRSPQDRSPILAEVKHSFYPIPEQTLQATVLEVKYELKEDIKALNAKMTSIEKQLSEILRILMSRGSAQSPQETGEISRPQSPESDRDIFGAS
From the text: (§1) The cDNA encoding wild-type (WT) mouse EAG1 channels in pGH19 vector was kindly provided by G. Robertson (University of Wisconsin-Madison, Madison, WI). The mutant ΔPAS EAG1 channel in pGH19 with the deletion of the PAS domain residues 2 to 130 was generated by Bio Basic Inc and verified by DNA sequencing (Genewiz). Mutant EAG1 channels with single amino acid substitutions were generated by Genewiz and verified by DNA sequencing. cRNA was transcribed using the T7 mMessage mMachine kit (Thermo Fisher Scientific). Defolliculated Xenopus laevis oocytes were purchased from Ecocyte Bioscience or Xenopus1 and injected with the cRNA using a Nanoinject II oocyte injector (Drummond).
(§2) For EAG1 current recordings, oocytes were placed into a handmade chamber containing a bath solution for the current recording. The currents were recorded using a TEVC technique with OC-725C amplifier (Warner Instruments) and pClamp11 software (Molecular Devices). The signals were digitized using Digidata 1550 (Molecular Devices). Patch pipettes were pulled from borosilicate glass and had resistances of 0.7 to 1.5 MΩ. The recording (bath) solution contained 96 mM NaCl, 4 mM KCl, 0.1 mM CaCl2, 1.8 mM MgCl2, and 5 mM HEPES, pH 7.5. The pipette solution contained 3 M KCl. […]

[2] = target: T2, F87G mutant EAG1 channels (Mus musculus, UniProt Q60603, F87G); assay: TEVC recording, imipramine inhibition, F87G mutant; assay type: cell-based; details: F87G mutant EAG1 channel, +50 mV
T2 construct: expressed in transfected cells; host or cells: Xenopus laevis oocytes injected with cRNA
T2 sequence (Q60603 1-989 F87G): T1 sequence (Q60603 1-989 R84G) with G84R, F87G
From the text: as §1, §2

## CN(C)CCCN1c2ccccc2CCc2ccccc21 [imipramine]
[1]
  IC50: 92.6 ± 2.7 µM
[2]
  IC50: 42.8 ± 0.6 µM
